In patent publication US20170290774A1, “NEUROKININ-1 RECEPTOR ANTAGONIST COMPOSITION FOR TREATMENT OF DISEASES AND CONDITIONS OF THE RESPIRATORY TRACT” (PLUS VITECH, S.L., priority 2014, published 2017):

Experiments:
Assay type in all cases: in vivo, New Zealand albino rabbits
VEGF = assay: Immunohistochemistry of VEGF in respiratory tract tissue of sodium hypochlorite aerosol-treated rabbits
From the text: (§1) It is known that the factors TGF-α, TGF-β 1, TGF-β 2, TGF-β 3, SPARC, MMP-3; MMP-7, MMP-9, MMP-11, MMP-13 and MMP-14, TGF-β, NF-kB, EGF, MMP-9, VEGF and TNF-α which are produced by lung cells (pneumocytes, fibroblasts and vascular endothelial cells) and inflammatory cells (macrophages, lymphocytes and polymorphonuclear leukocytes) are involved in the pathophysiology and development of said respiratory tract diseases. […] Herein, 27 New Zealand albino rabbits (New Zealand White Rabbit) with an initial average weight about 3 kg were used in this example. All subjects were administered an aerosol of a solution consisting of a mixture of water and sodium hypochlorite (35 g sodium hypochlorite per liter of water) at a rate of 5 mL of said solution by inhalation three times a day for 7 days (days 1 to 7 of experimentation). Subsequently, from days 3 to 7, a group of 3 rabbits (Group 1) was administered an oral dose of 10 mg/kg body weight per day, another group of 3 rabbits (Group 2) was administered an oral dose of 40 mg/kg body weight per day, a third group (Group 3) was administered an oral dose of 80 mg/kg body weight per day and a fourth group (Group 4) was administered an oral dose of 100 mg/kg body weight per day. […] This mixture was administered as an aerosol by inhalation, also from days 3 to 7, to a group of 3 rabbits (group 5) at a dose of 0.05 mg/kg body weight per day, to another group of three rabbits (Group 6) at a dose of 0.1 mg/kg body weight per day, to another group of three rabbits (Group 7) at a dose of 0.2 mg/kg body weight per day and to another group of three rabbits (Group 8) at a dose of 0.4 mg/kg body weight per day. A placebo consisting only of olive oil was administered from days 3 to 7 to a control group of 3 rabbits (placebo group). In parallel, 3 rabbits were kept under identical conditions but were not administered any treatment nor the aforementioned sodium hypochlorite solution (control group). […] On day 7 of the experiment all animals were euthanized and necropsied. […] Samples were taken at the peripheral level of the lung parenchyma, just below the pleural surface. Tissue samples were also taken from the nasal cavity, pharynx, larynx and bronchi. Immunohistochemistry studies were performed for all samples to evaluate the levels of the markers TGF-α, TGF-β 1, TGF-β 2, TGF-β 3 SPARC, MMP-3; MMP-7, MMP-9, MMP-11, MMP-14, TGF-β, TNF-α and VEGF. In said immunohistochemistry studies, a sample of each sample was dehydrated by treatment with increasing concentrations of ethanol and finally xylene. Subsequently said dried samples were embedded in paraffin, thus creating a block. Said paraffin blocks were cut on a microtome to a thickness of 5 μm, and the resulting sections (slices) were placed on slides suitable for conducting immunohistochemistry techniques. Subsequently, the sections were deparaffinised by immersion in xylene and then rehydrated through immersion in a series of solutions containing decreasing concentrations of ethanol and, finally, water. […] The samples were then allowed to cool to room temperature over 10 minutes. Endogenous peroxidase activity was blocked by treatment with 3% hydrogen peroxide over 30 min at room temperature. […] In order to verify the expression of NK1 receptors, the cell samples were incubated in the presence of anti-NK1 antibodies ([…], Sigma-Aldrich) diluted 1:1000 at 4° C. overnight. After this time they were washed in 0.05M Tris buffer at room temperature. Subsequently, Envision System-HRP (Dako) reagents were added for 30 min at room temperature. Once this time had expired, the samples were again washed with 0.05 M Tris buffer, and immunoreactivity was visualized by light microscopy with a chromogenic solution with 3,3'-diaminobenzidine (DAB+; Dako, USA). In order to differentiate the cell nuclei, these were lightly stained with haematoxylin. Samples that were not incubated with the primary antibody, but wherein this was replaced by a non-immune serum were used as negative controls. […]

TGFα = assay: Immunohistochemistry of TGFα in respiratory tract tissue of sodium hypochlorite aerosol-treated rabbits
From the text: as §1

[1] = Tissue concentration of aprepitant by HPLC after oral or inhaled administration to rabbits; settings: oral, 10 to 100 mg/kg per day
[2] = bronchial tissue, Group 1, oral 10 mg/kg per day
[3] = bronchial tissue, Group 2, oral 40 mg/kg per day
[4] = bronchial tissue, Group 3, oral 80 mg/kg per day
[5] = bronchial tissue, Group 4, oral 100 mg/kg per day
[6] = laryngeal tissue, Group 1, oral 10 mg/kg per day
[7] = laryngeal tissue, Group 2, oral 40 mg/kg per day
[8] = laryngeal tissue, Group 3, oral 80 mg/kg per day
[9] = laryngeal tissue, Group 4, oral 100 mg/kg per day
[10] = laryngeal tissue, Group 5, inhalation 0.05 mg/kg per day
[11] = laryngeal tissue, Group 6, inhalation 0.1 mg/kg per day
[12] = laryngeal tissue, Group 7, inhalation 0.2 mg/kg per day
[13] = laryngeal tissue, Group 8, inhalation 0.4 mg/kg per day
[14] = lung tissue, Group 1, oral 10 mg/kg per day
[15] = lung tissue, Group 2, oral 40 mg/kg per day
[16] = lung tissue, Group 3, oral 80 mg/kg per day
[17] = lung tissue, Group 4, oral 100 mg/kg per day
[18] = lung tissue, Group 6, inhalation 0.1 mg/kg per day
[19] = lung tissue, Group 7, inhalation 0.2 mg/kg per day
[20] = lung tissue, Group 8, inhalation 0.4 mg/kg per day
[21] = nasal cavity tissue, Group 1, oral 10 mg/kg per day
[22] = nasal cavity tissue, Group 2, oral 40 mg/kg per day
[23] = nasal cavity tissue, Group 3, oral 80 mg/kg per day
[24] = nasal cavity tissue, Group 4, oral 100 mg/kg per day
[25] = nasal cavity tissue, Group 5, inhalation 0.05 mg/kg per day
[26] = nasal cavity tissue, Group 6, inhalation 0.1 mg/kg per day
[27] = nasal cavity tissue, Group 7, inhalation 0.2 mg/kg per day
[28] = nasal cavity tissue, Group 8, inhalation 0.4 mg/kg per day
[29] = pharyngeal tissue, Group 1, oral 10 mg/kg per day
[30] = pharyngeal tissue, Group 2, oral 40 mg/kg per day
[31] = pharyngeal tissue, Group 3, oral 80 mg/kg per day
[32] = pharyngeal tissue, Group 4, oral 100 mg/kg per day
[33] = pharyngeal tissue, Group 5, inhalation 0.05 mg/kg per day
[34] = pharyngeal tissue, Group 6, inhalation 0.1 mg/kg per day
[35] = pharyngeal tissue, Group 7, inhalation 0.2 mg/kg per day
[36] = pharyngeal tissue, Group 8, inhalation 0.4 mg/kg per day

## C[C@@H](OC1OCCN(Cc2nc(=O)[nH][nH]2)C1c1ccc(F)cc1)c1cc(C(F)(F)F)cc(C(F)(F)F)c1 (stereo in doubt) [Aprepitant, 5-([(2R,3S)-2-((R)-1-[3,5-bis(trifluoromethyl)phenyl]ethoxy)-3-(4-fluorophenyl)morpholino]methyl)-1H-1,2,4-triazol-3(2H)-one]
VEGF; [2]
  Percent increase in VEGF with respect to the control group: 457.34%
VEGF; [3]
  Percent increase in VEGF with respect to the control group: 356.45%
VEGF; [4]
  Percent increase in VEGF with respect to the control group: 256.34%
VEGF; [5]
  Percent increase in VEGF with respect to the control group: 203.56%
VEGF; bronchial tissue, Group 5
  % Med G5/C: percent increase in marker VEGF with respect to the control group: 324.53%
VEGF; bronchial tissue, Group 6
  % Med G6/C: percent increase in marker VEGF with respect to the control group: 235.71%
VEGF; bronchial tissue, Group 7
  % Med G7/C: percent increase in marker VEGF with respect to the control group: 153.57%
VEGF; bronchial tissue, Group 8
  % Med G8/C: percent increase in marker VEGF with respect to the control group: 112.71%
VEGF; [6]
  Percent increase in VEGF with respect to the control group: 1,134.34%
VEGF; [7]
  Percent increase in VEGF with respect to the control group: 980.54%
VEGF; [8]
  Percent increase in VEGF with respect to the control group: 875.80%
VEGF; [9]
  Percent increase in VEGF with respect to the control group: 667.82%
VEGF; [10]
  Percent increase in VEGF with respect to the control group: 950.34%
VEGF; [11]
  Percent increase in VEGF with respect to the control group: 670.32%
VEGF; [12]
  Percent increase in VEGF with respect to the control group: 570.12%
VEGF; [13]
  Percent increase in VEGF with respect to the control group: 250.21%
VEGF; [14]
  Percent increase in VEGF with respect to the control group: 655.77%
VEGF; [15]
  Percent increase in VEGF with respect to the control group: 512.28%
VEGF; [16]
  Percent increase in VEGF with respect to the control group: 458.30%
VEGF; [17]
  Percent increase in VEGF with respect to the control group: 342.93%
VEGF; lung tissue, Group 5, inhalation 0.05 mg/kg per day
  Percent increase in VEGF with respect to the control group: 575.62%
VEGF; [18]
  Percent increase in VEGF with respect to the control group: 391.91%
VEGF; [19]
  Percent increase in VEGF with respect to the control group: 200.18%
VEGF; [20]
  Percent increase in VEGF with respect to the control group: 145.64%
VEGF; [21]
  Percent increase in VEGF with respect to the control group: 1,293.11%
VEGF; [22]
  Percent increase in VEGF with respect to the control group: 969.58%
VEGF; [23]
  Percent increase in VEGF with respect to the control group: 716.62%
VEGF; [24]
  Percent increase in VEGF with respect to the control group: 576.80%
VEGF; [25]
  Percent increase in VEGF with respect to the control group: 1,727.98%
VEGF; [26]
  Percent increase in VEGF with respect to the control group: 1,010.56%
VEGF; [27]
  Percent increase in VEGF with respect to the control group: 323.15%
VEGF; [28]
  Percent increase in VEGF with respect to the control group: 145.68%
VEGF; [29]
  Percent increase in VEGF with respect to the control group: 1,789.12%
VEGF; [30]
  Percent increase in VEGF with respect to the control group: 1,256.67%
VEGF; [31]
  Percent increase in VEGF with respect to the control group: 998.56%
VEGF; [32]
  Percent increase in VEGF with respect to the control group: 567.45%
VEGF; [33]
  Percent increase in VEGF with respect to the control group: 1,858.37%
VEGF; [34]
  Percent increase in VEGF with respect to the control group: 1,198.56%
VEGF; [35]
  Percent increase in VEGF with respect to the control group: 654.32%
VEGF; [36]
  Percent increase in VEGF with respect to the control group: 121.34%
TGFα; [2]
  Percent increase in TGFα with respect to the control group: 1,980.45%
TGFα; [3]
  Percent increase in TGFα with respect to the control group: 1,540.45%
TGFα; [4]
  Percent increase in TGFα with respect to the control group: 1,190.45%
TGFα; [5]
  Percent increase in TGFα with respect to the control group: 873.34%
TGFα; bronchial tissue, Group 5
  % Med G5/C: percent increase in marker TGFα with respect to the control group: 1,875.75%
TGFα; bronchial tissue, Group 6
  % Med G6/C: percent increase in marker TGFα with respect to the control group: 1,267.45%
TGFα; bronchial tissue, Group 7
  % Med G7/C: percent increase in marker TGFα with respect to the control group: 689.78%
TGFα; bronchial tissue, Group 8
  % Med G8/C: percent increase in marker TGFα with respect to the control group: 209.45%
TGFα; [6]
  Percent increase in TGFα with respect to the control group: 1,875.56%
TGFα; [7]
  Percent increase in TGFα with respect to the control group: 1,500.45%
TGFα; [8]
  Percent increase in TGFα with respect to the control group: 1,320.32%
TGFα; [9]
  Percent increase in TGFα with respect to the control group: 1,101.28%
TGFα; [10]
  Percent increase in TGFα with respect to the control group: 1,820.45%
TGFα; [11]
  Percent increase in TGFα with respect to the control group: 1,250.74%
TGFα; [12]
  Percent increase in TGFα with respect to the control group: 783.78%
TGFα; [13]
  Percent increase in TGFα with respect to the control group: 234.67%
TGFα; [14]
  Percent increase in TGFα with respect to the control group: 1,717.76%
TGFα; [15]
  Percent increase in TGFα with respect to the control group: 1,308.73%
TGFα; [16]
  Percent increase in TGFα with respect to the control group: 1,257.29%
TGFα; [17]
  Percent increase in TGFα with respect to the control group: 1,195.15%
TGFα; [18]
  Percent increase in TGFα with respect to the control group: 937.00%
TGFα; [19]
  Percent increase in TGFα with respect to the control group: 402.39%
TGFα; [20]
  Percent increase in TGFα with respect to the control group: 147.11%
TGFα; [21]
  Percent increase in TGFα with respect to the control group: 2,824.89%
TGFα; [22]
  Percent increase in TGFα with respect to the control group: 1,907.98%
TGFα; [23]
  Percent increase in TGFα with respect to the control group: 1,347.22%
TGFα; [24]
  Percent increase in TGFα with respect to the control group: 952.16%
TGFα; [25]
  Percent increase in TGFα with respect to the control group: 2,908.21%
TGFα; [26]
  Percent increase in TGFα with respect to the control group: 764.46%
TGFα; [27]
  Percent increase in TGFα with respect to the control group: 495.68%
TGFα; [28]
  Percent increase in TGFα with respect to the control group: 156.67%
TGFα; [29]
  Percent increase in TGFα with respect to the control group: 2,274.76%
TGFα; [30]
  Percent increase in TGFα with respect to the control group: 1,907.77%
TGFα; [31]
  Percent increase in TGFα with respect to the control group: 1,780.45%
TGFα; [32]
  Percent increase in TGFα with respect to the control group: 1,550.34%
TGFα; [33]
  Percent increase in TGFα with respect to the control group: 1,946.43%
TGFα; [34]
  Percent increase in TGFα with respect to the control group: 1,364.46%
TGFα; [35]
  Percent increase in TGFα with respect to the control group: 699.78%
TGFα; [36]
  Percent increase in TGFα with respect to the control group: 101.34%
[1]
  relationship between dose and concentration in lung tissue: non-linear and not proportional
